In patent publication US12344596B2, “Solid forms of (S)-1-((2′,6-bis(difluoromethyl)-[2,4′-bipyridin]-5-yl)oxy)-2,4-dimethylpentan-2-amine and salts thereof” (Lexicon Pharmaceuticals, Inc., priority 2022, dated 2025):

Key:
[1] = storage stability at 40° C. and 75% relative humidity; assay type: physicochemical; conditions: stored at 40° C. and 75% relative humidity for up to four weeks
Description: Instead, the melting of Form I is observed to recrystallize to another, metastable form having a melting point of about 172.5° C.

[2] = water solubility at 25° C.; assay type: physicochemical; conditions: aqueous

| solubility [2] [µg/mL] | SMILES | stability of form, morphology and purity on storage [1] |
| --- | --- | --- |
|  | CC(C)C[C@](C)(N)COc1ccc(-c2ccnc(C(F)F)c2)nc1C(F)F [Compound K, ((S)-1-((2′,6-bis(difluoromethyl)-[2,4′-bipyridin]-5-yl)oxy)-2,4-dimethylpentan-2-aminiumdihydrogen phosphate] | neither the form itself, its morphology, nor its purity changed |
| 2900 | CC(C)C[C@](C)(N)COc1ccc(-c2ccnc(C(F)F)c2)nc1C(F)F.Cl [Compound S, (S)-1-((2′,6-bis(difluoromethyl)-[2,4′-bipyridin]-5-yl)oxy)-2,4-dimethylpentan-2-amine hydrochloride] |  |
